According to BindingDB's records for doi:10.1074/jbc.M113.487777 (McGill University, 2013):

Target: T1, Inositol-pentakisphosphate 2-kinase (Mouse-ear cress, UniProt Q93YN9)
T1 sequence (Q93YN9 whole entry): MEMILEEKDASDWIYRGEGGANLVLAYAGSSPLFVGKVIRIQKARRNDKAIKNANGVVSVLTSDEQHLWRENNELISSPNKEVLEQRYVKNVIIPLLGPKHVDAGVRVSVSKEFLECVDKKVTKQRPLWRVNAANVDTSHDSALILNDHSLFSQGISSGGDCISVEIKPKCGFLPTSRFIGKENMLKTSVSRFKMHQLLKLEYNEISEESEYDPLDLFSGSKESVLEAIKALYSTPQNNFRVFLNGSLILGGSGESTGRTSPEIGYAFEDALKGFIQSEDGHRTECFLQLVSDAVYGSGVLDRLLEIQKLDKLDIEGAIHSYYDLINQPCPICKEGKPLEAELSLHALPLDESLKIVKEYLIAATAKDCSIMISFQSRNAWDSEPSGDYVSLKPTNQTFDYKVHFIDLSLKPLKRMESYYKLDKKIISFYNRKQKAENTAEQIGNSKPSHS
Test: Isothermal Titration Calorimetry (ITC)
Conditions: pH 7.5; 25 °C
Method: Experiments were performed on a MicroCal iTC200 titration calorimeter (GE Healthcare). Wild-type IPK1 was purified and dialyzed into ITC buffer containing 50 mM HEPES (pH 7.5), 6 mM MgCl2, 150 mM NaCl, and 1 mM tris(2-carboxyethyl)phosphine (pH 7.0). After protein dialysis was complete, dialysis buffer was used to dissolve the ligands, IP, and AMP-PNP (Jena Bioscience). Titration experiments were performed at 25 °C with 100 uM IPK1 and1mM AMP-PNP in the cell and 1-2 mM IP in the syringe to ensure a final IP:IPK1 molar ratio of at least 2:1. Titration experiments were performed at least twice for each IP, and one set was chosen to represent data.

| Compound | Kd [µM] |
| --- | --- |
| O=P(O)(O)O[C@@H]1[C@@H](OP(=O)(O)O)[C@H](OP(=O)(O)O)[C@@H](O)[C@@H](O)[C@H]1OP(=O)(O)O [1,4,5,6-Inositol tetrakisphosphate (1,4,5,6-IP4)] | 8.2 |
| O=P(O)(O)O[C@H]1[C@H](O)[C@@H](OP(=O)(O)O)[C@H](OP(=O)(O)O)[C@@H](OP(=O)(O)O)[C@H]1O [1,3,4,5-Inositol tetrakisphosphate (1,3,4,5-IP4)] | 18.2 |

Continued by falling Kd, values first:

| Kd [µM] | Compound |
| --- | --- |
| 26.9 | O=P(O)(O)O[C@@H]1[C@@H](O)[C@H](OP(=O)(O)O)[C@@H](OP(=O)(O)O)[C@@H](O)[C@H]1OP(=O)(O)O [1,3,4,6-Inositol tetrakisphosphate (1,3,4,6-IP4)] |
| 7.52 | O=P(O)(O)O[C@H]1[C@H](OP(=O)(O)O)[C@@H](OP(=O)(O)O)[C@@H](O)[C@@H](O)[C@@H]1OP(=O)(O)O [3,4,5,6-Inositol tetrakisphosphate (3,4,5,6-IP4)] |
| 0.6 | O=P(O)(O)O[C@@H]1[C@@H](OP(=O)(O)O)[C@H](OP(=O)(O)O)[C@H](O)[C@H](OP(=O)(O)O)[C@H]1OP(=O)(O)O [Inositol 1,3,4,5,6-pentakisphosphate (IP5)] |
